Experimental data published in article PMC9602792, “Preclinical evaluation of the epithelial sodium channel inhibitor AZD5634 and implications on human translation” (American Journal of Physiology - Lung Cellular and …, 2022).

Columns and labels:
[1] = test system: healthy sheep; test: Mucociliary clearance (99mTc-sulfur colloid) in healthy sheep after nebulized drug; format: in vivo
From the text: Twenty-one adult female Florida native sheep (37–54 kg, Fair Meadow Sheep) were used in the present study, once or twice with a washout of at least 1 wk between experiments. Animals were restrained in an upright position in a specialized body harness in modified carts. The head of the animal was immobilized, and after local anesthesia of the nasal passage was induced with 2% lidocaine, the animals were nasally intubated with a standard endotracheal tube (7.5 mm diameter, Mallinckrodt, St. Louis, MO). A flexible bronchoscope was used to guide the tube and verify its position in the trachea. After intubation, the animals were allowed to rest for ∼20 min before administration of any agent.
Nebulized drug or placebo was given as an aerosol where 3 mL volume (compound in 10% EtOH:90% saline) was delivered at a tidal volume of 300 mL. To maximize central deposition in the airways, a dosimeter was used to deliver the compound. The nebulizer was connected to the dosimeter system consisting of a solenoid valve and a source of compressed air (20 psi). The output of the nebulizer was connected to a T-piece, with one end attached to a respirator (Harvard Apparatus Inc., Holliston, MA). The system was activated for 1 s at the onset of the inspiratory cycle of the respirator, which was set at an inspiratory/expiratory ratio of 1:1 and a rate of 20 breaths/min. To evaluate the effect of repeated dosing, AZD5634 was given twice daily for 4 days and MCC was measured 8 h after the 7th dose.
MCC rate was measured by means of aerosolized technetium-labeled sulfur colloid (^99mTC-SC) and nebulized via the same dosimeter system as for the drug administration. […] Aerosol ^99mTC-SC was generated using an Air Life nebulizer (CareFusion, Yorba Linda, CA). Approximately 20 mCi of ^99mTC-SC in a total of 2 mL of sterile saline was placed in the nebulizer. A tidal volume of 500 mL was used to deliver the ^99mTC-SC over 3 min.
Blood was kept on ice until centrifuged (4,000 g, 5 min, 4°C) and plasma (approximately 2 mL) was transferred to two Eppendorf tubes per sample and frozen at −20°C until analyzed. Sodium and potassium concentrations were analyzed at Mount Sinai Medical Center immediately after sampling and before centrifugation (IRMA TruPoint Analysis System). The plasma samples for analysis of drug concentration were shipped on dry ice to AstraZeneca R&D, Mölndal, Gothenburg and analyzed by means of LC-MSMS (001–04 Method for Blood Plasma Analysis).
Rat electrolyte data were analyzed by means of repeated-measures ANCOVA (SAS v.9).

[2] = test system: amiloride-sensitive potential difference; parameters: method as in PMID 35227647; conditions: perfused to the nasal surface, people with CF; cited from earlier work
[3] = target: T1, hERG (Homo sapiens, UniProt Q12809); test: Secondary pharmacology binding panel (Millipore & Cerep); conditions: at 10 µM
T1 construct: Millipore & Cerep (outsourced panels)
From the text: As pharmacological properties regarding selectivity are crucial for the development of ENaC inhibitors, we first assessed the properties of AZD5634 through a standard battery of assessments.

T1 sequence (Q12809 whole entry): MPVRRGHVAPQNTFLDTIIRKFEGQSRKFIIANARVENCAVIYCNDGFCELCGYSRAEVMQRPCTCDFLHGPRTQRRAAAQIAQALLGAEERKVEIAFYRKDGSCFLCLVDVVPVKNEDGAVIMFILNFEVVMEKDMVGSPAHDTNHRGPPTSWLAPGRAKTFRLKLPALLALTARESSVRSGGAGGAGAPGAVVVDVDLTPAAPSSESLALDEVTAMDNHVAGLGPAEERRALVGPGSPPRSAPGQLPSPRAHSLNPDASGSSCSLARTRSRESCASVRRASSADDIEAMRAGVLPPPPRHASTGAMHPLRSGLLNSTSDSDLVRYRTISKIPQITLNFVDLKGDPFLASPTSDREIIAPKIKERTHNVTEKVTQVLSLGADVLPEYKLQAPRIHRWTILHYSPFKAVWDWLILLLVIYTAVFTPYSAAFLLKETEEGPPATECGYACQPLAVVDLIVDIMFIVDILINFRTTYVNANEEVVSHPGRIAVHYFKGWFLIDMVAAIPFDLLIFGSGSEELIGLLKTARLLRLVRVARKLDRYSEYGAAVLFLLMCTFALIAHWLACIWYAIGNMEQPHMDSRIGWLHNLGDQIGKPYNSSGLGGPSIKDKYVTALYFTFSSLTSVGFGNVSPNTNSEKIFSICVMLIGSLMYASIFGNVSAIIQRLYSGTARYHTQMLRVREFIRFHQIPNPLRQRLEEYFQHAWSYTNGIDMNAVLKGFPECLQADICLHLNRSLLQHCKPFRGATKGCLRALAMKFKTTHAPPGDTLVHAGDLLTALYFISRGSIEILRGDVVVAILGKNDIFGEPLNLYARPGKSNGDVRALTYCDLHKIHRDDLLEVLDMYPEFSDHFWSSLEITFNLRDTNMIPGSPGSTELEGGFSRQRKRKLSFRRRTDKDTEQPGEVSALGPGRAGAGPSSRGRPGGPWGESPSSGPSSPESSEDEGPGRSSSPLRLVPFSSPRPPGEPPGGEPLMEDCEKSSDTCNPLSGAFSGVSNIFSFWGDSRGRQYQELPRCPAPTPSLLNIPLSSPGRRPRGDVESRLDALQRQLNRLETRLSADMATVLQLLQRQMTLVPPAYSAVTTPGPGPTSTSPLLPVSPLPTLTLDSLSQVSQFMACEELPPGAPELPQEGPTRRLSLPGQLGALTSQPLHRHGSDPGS

## AZD5634
[1]; 3 μg/kg bid for 4 days (7 doses), MCC 8 h after 7th dose
  MCC effect after repeated administration: effect magnitude was maintained compared with single-dose studies
[1]; 12 μg/kg given 0, 4, 8, 12, 24 h before 99mTc
  duration of MCC effect: retained for 8 h, with approximately half left at 12 h and another half of the remaining effect gone by 24 h
[1]; dose-response 1–330 µg/kg, healthy sheep
  dose giving max effect on MCC: 120 µg/kg
[1]; dose-response, healthy sheep
  dose giving max efficacy on MCC: 120 µg/kg
[1]; nebulized 1–330 µg/kg, given just before 99mTc
  effect on MCC: dose-dependent effect on MCC
[1]; normal sheep in vivo
  peak effect on mucus clearance (augmentation): 30%
[2]
  effect on amiloride-sensitive nasal potential difference: acutely inhibited amiloride-sensitive potential difference
[3]
  hERG inhibition: 13%
